Data as given in patent US20210093679A1, “[…] MICROBES AND USES THEREOF” (priority 2018, published 2021).

System: female Balb/cJ mice
Assay: Mouse model of xenobiotic metabolism (irinotecan-induced diarrhea)
Details: irinotecan 50 mg/kg IP once daily for 10 days
Protocol: On day one and everyday thereafter for 10 days, female Balb/cJ mice (The Jackson Laboratory, Farmington, Conn.) were administered irinotecan (50 mg/kg) (Selleckchem, Houston, Tex.) via intraperitoneal (IP) injection once daily for the length of the experiment. On day one and every day thereafter for 10 days, mice were also administered streptomycin (5 mg/ml) (Sigma-Aldrich, St. Louis, Mo.) ad libidum via their drinking water in order to kill proteobacteria in the mouse GI tract.
On day two, 0.1 ml of engineered bacteria in PBS at a concentration of 10^10 colony forming units per mL were administered to the mice once via oral gavage.
On days 3, 7, 8, 9, and 10, the presence of the bacteria in the mouse GI tract was confirmed by collecting fecal samples from the mice, and analyzing the fecal samples for the presence of engineered bacteria. The fecal samples were homogenized in PBS, and inoculated onto agar plates containing streptomycin (500 μg/ml). These agar plates inhibited the growth of other bacteria, and only allowed the engineered bacteria to grow. Colonies were quantified and tallied to determine the amount of bacteria that were alive in the mouse GI tract.
Diarrhea indicated whether the xenobiotic metabolism of the irinotecan caused GI toxicity.

For CCc1c2c(nc3ccc(OC(=O)N4CCC(N5CCCCC5)CC4)cc13)-c1cc3c(c(=O)n1C2)COC(=O)[C@]3(O)CC [Irinotecan, irinotecan], the “Mice with diarrhea/total mice in test group” value (streptomycin in drinking water, bacteria once via oral gavage on day two, observed days 6 through 10) was 9/10 and the “GI toxicity / diarrhea from irinotecan, in words” value (with or without engineered bacteria) was “Nine of the ten mice that did not receive engineered bacteria experienced GI toxicity”.
